What all share (format): cell-based
Data set [1] relates to Pseudomonas aeruginosa (DSM 1128/ATCC 9027). Briefly: microbe, parasite or virus in culture. As to conditions: P. aeruginosa. The text has this:
(§1) The following bacteria and fungi strains and methods were used:
(§2) Pseudomonas aeruginosa and Escherichia coli: MIC determined in accordance with DIN EN ISO 20776-1: 2006.

For data set [2], the system named is Escherichia coli (DSM 1576/ATCC 8739). Briefly: microbe, parasite or virus in culture. As to conditions: E. coli.
From the text: as §1, §2

In data set [3] the test system is Aspergillus brasiliensis (DSM 1988/ATCC 16404). Description: microbe, parasite or virus in culture.
From the text: as §1
Aspergillus brasiliensis (2d) and (9d): MIC determined in accordance with a method of the European Committee on Antimicrobial Susceptibility Testing: EUCAST E.DEF 9.1, July 2008, “Method for the determination of broth dilution minimum inhibitory concentrations of antifungal agents for conidia forming moulds” available under www.eucast.

Data set [4] concerns Candida albicans (DSM 1386/ATCC 10231). Briefly: microbe, parasite or virus in culture. To be noted: C. albicans.
From the text: as §1
Candida albicans: MIC determined in accordance with the method described in EUCAST DEFINITIVE DOCUMENT EDef 7.2 “Method for the determination of broth dilution minimum inhibitory concentrations of antifungal agents for yeasts” available under www.eucast.org.

Data set [5] relates to Human corneal epithelial cells (HCE-T-cell line). Description: MTT toxicity test. As to conditions: compound 0.01%, 10 minutes treatment, in reference to KRB (100% viability) and Triton X (0% viability). As to the method: The toxicity of the compounds of the invention was determined in accordance with a conventional MTT test. Human corneal epithelial cells (HCE-T-cell line) were cultivated in 5% Sasaki cell culture medium consisting of 250 ml DMEM (Dulbecco's Modified Eagle's Medium), 250 ml Ham's F12 medium, 27.17 ml fetale calf serum, 543.4 μl insulin 5 mg/ml, 1.086 ml EGF stock solution 5 μg/ml, 2.717 ml DMSO and 5.43 ml antibiotic/antimycotic solution. The cells were seeded into a 96 wells cell culture plate (18 000 cells/well) and grown in an incubator for about 24 h (37° C., 5% CO2). The medium was removed and the test compounds dissolved in KRB (Krebs Ringer buffer) were applied. 100 μl KRB were used as positive control whereas a 0.5% Triton X solution was used as negative control.
After incubation for 10 min. under light protection the test compounds were removed and the plates were rinsed once with 100 μl phosphate buffered saline (PBS without Mg and Ca) per well. After removal of PBS 100 μl MTT reagent (0.05%) were added into each well followed by incubation for 3h at 37° C. under light protection. Thereafter, the reagent was removed and replaced by 100 μl lysis solution. The dark blue dye was dissolved from the cells by shaking. After 30 min. the plate was evaluated by UV spectroscopy at 570 nm.

Consider `c1cc(-c2cc[n+](CCCC[n+]3ccc(-c4ccncc4)cc3)cc2)ccn1` [Comp. ex. 3, reference compound], for which the MIC in data set [1] is greater than 400 µg/mL; in data set [2], 200 µg/mL; in data set [3] (48 h, A. bras. (2d)) it was 200 µg/mL; in data set [3] (216 h, A. bras. (9d)) it was 200 to 400 µg/mL; in data set [4], 200 µg/mL.
As to `CC[N+](CC)(CC)C/C=C/C[n+]1ccc(CCCc2cc[n+](C/C=C/C[n+]3ccc(CCCc4cc[n+](C/C=C/C[N+](CC)(CC)CC)cc4)cc3)cc2)cc1` [Ex. 3], the MIC in data set [1] is 25 µg/mL; in data set [2] it was 50 µg/mL; in data set [3] (48 h, A. bras. (2d)), 12.5 µg/mL; in data set [3] (216 h, A. bras. (9d)), 12.5 to 25 µg/mL; in data set [4], less than 3.1 µg/mL. This compound returned a Viability in data set [5] of 90.3 ± 7.0%.
Take `BrCCCC[n+]1ccc(-c2ccncc2)cc1` [Ex. 5]: the MIC is 12.5 µg/mL in data set [1]; 6.3 µg/mL in data set [2]; 3.1 µg/mL in data set [3] (48 h, A. bras. (2d)); 3.1 to 50 µg/mL in data set [3] (216 h, A. bras. (9d)); 1.56 µg/mL in data set [4]. The same compound displayed a Viability in data set [5] of 83.8 ± 12.6%.
For the compound `CCCCCCCCCCCC[N+](C)(C)CCCC[n+]1ccc(-c2ccncc2)cc1` [Ex. 6.2], the MIC was 12.5 µg/mL in data set [1]; 6.3 µg/mL in data set [2]; 6.3 µg/mL in data set [3] (48 h, A. bras. (2d)); 6.3 µg/mL in data set [3] (216 h, A. bras. (9d)); less than 3.12 µg/mL in data set [4]. The compound also gave a Viability in data set [5] of 74.9 ± 12.0%.
